pKd: −log10 of the molar value. Residues, ends and D or L forms follow the SMILES beside them.
Key:
HA-MBP-POLE2 = biological target: T1, HA-MBP-POLE2 (Homo sapiens, UniProt P56282); assay: Titration nHU, Western blot, HA-MBP-POLE2 in 293T cell extract; format: binding; details: MBP-tagged POLE2, depending on the experimental setup, authors' rebuttal; read-out: dissociation constants
T1 construct: POLE2: UniProt ID P56282, residues 1-527; expressed in transfected cells; host or cells: HEK293T
Excerpt: (§1) To identify the partners of NPF motifs, we used the native holdup (nHU) assay that was recently developed by our team (Fig. 1B). The holdup approach has been extensively used to determine equilibrium dissociation constants of transient interactions mediated by PDZ and SH3 domains, 14-3-3, and human papilloma virus E6 proteins, and even nucleic acid-protein interactions[7],[30]–[35]. In the nHU experiments, a purified bait molecule, or a control compound, is immobilized on a resin at high concentration (typically 10 μM, or higher) and these resin stocks are subsequently mixed with dilute cell extracts. […] This liquid phase contains the unbound prey molecules at near binding equilibrium that can be quantified using selective and quantitative analytical approaches, such as mass spectrometry. Therefore, proteins that interact with the bait molecule will appear to be depleted in the solvent phase and by measuring its relative concentration compared to the control nHU experiment, the degree of binding (θ) can be determined that can be converted to apparent steady-state dissociation constants, according to:1 θ=1−Ifree/Itot=Cbait/Cbait+Kapp where Itot and Ifree are the measured total and bait-depleted equilibrium mass spectrometry total ion intensities of prey proteins, Cbait is the bait molecule concentration and Kapp is the apparent dissociation constant. […]

RFT1 = RFT1 (Homo sapiens, UniProt Q96AA3); assay: nHU-MS peptide bait, prey RFT1
DDX18 = DDX18 (Homo sapiens, UniProt Q9NVP1); assay: nHU-MS peptide bait, prey DDX18
EPS15 = biological target: T2, EPS15 (Homo sapiens, UniProt P42566); assay: Titration nHU, Western blot, endogenous EPS15 in Jurkat extract; format: binding; details: source data of Fig 5, titration nHU, unit inferred
T2 construct: endogenous in cells; host or cells: Jurkat E6.1
T2 sequence (P42566 1-896): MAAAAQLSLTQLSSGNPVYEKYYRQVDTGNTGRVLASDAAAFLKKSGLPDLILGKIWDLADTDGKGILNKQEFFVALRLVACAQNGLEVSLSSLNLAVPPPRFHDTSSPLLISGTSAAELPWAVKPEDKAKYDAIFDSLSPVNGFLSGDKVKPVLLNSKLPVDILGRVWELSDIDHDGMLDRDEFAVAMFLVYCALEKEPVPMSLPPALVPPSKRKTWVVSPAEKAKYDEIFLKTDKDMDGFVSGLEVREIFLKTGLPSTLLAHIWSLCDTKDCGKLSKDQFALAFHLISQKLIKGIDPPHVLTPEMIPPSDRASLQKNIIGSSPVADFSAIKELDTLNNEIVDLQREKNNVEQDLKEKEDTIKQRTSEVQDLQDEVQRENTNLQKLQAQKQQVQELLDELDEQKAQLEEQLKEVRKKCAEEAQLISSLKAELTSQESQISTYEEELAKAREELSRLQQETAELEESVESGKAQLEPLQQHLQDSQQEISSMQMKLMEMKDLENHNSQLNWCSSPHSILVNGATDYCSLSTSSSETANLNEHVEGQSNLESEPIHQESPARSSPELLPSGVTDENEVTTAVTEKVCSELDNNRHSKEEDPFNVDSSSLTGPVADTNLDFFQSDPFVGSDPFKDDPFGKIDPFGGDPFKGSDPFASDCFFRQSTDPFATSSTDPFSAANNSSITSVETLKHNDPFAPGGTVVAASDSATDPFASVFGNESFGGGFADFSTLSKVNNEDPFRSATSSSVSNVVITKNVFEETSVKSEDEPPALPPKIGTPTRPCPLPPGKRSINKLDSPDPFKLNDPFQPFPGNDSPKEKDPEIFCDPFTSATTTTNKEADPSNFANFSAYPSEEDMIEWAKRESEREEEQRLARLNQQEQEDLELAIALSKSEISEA
Excerpt: To identify the partners of NPF motifs, we used the native holdup (nHU) assay that was recently developed by our team (Fig. 1B). The holdup approach has been extensively used to determine equilibrium dissociation constants of transient interactions mediated by PDZ and SH3 domains, 14-3-3, and human papilloma virus E6 proteins, and even nucleic acid-protein interactions[7],[30]–[35]. In the nHU experiments, a purified bait molecule, or a control compound, is immobilized on a resin at high concentration (typically 10 μM, or higher) and these resin stocks are subsequently mixed with dilute cell extracts. After a relatively long incubation, i.e., 2 h at 4 °C, the liquid phase is separated by centrifugation. This liquid phase contains the unbound prey molecules at near binding equilibrium that can be quantified using selective and quantitative analytical approaches, such as mass spectrometry. Therefore, proteins that interact with the bait molecule will appear to be depleted in the solvent phase and by measuring its relative concentration compared to the control nHU experiment, the degree of binding (θ) can be determined that can be converted to apparent steady-state dissociation constants, according to:1 θ=1−Ifree/Itot=Cbait/Cbait+Kapp where Itot and Ifree are the measured total and bait-depleted equilibrium mass spectrometry total ion intensities of prey proteins, Cbait is the bait molecule concentration and Kapp is the apparent dissociation constant.
Jurkat E6.1 cells (ECACC #88042803, RRID: CVCL_0367) were grown in RPMI (Gibco) medium completed with 10% FBS (Gibco BRL) and 40 μg/ml gentamicin (Gibco/Life Technology). To prepare total cell extracts, Jurkat cells were seeded onto T-175 flasks and grew until 3 × 10^6 cells/ml confluency. Cells were collected by 1000 g x 5 min centrifugation, washed with PBS and then lysed in ice-cold lysis buffer (Hepes-KOH pH 7.5 50 mM, NaCl 150 mM, Triton X-100 1%, cOmplete EDTA-free protease inhibitor cocktail 5x, TCEP 5 mM, glycerol 10%).
Cell suspensions were sonicated 4×20 sec with 1 sec long pulse on ice, then incubated rotating at 4 °C for 30 min. The lysates were centrifuged at 12,000 rpm 4 °C for 20 min and supernatant was kept. Total protein concentration was measured by standard Bradford method (Bio-Rad Protein Assay Dye Reagent #5000006) using a BSA calibration curve (MP Biomedicals #160069, diluted in lysis buffer) on a Bio-Rad SmartSpec 3000 spectrophotometer instrument.
Titration holdup experiments were carried out as described above using 25 μl saturated resins prepared. Briefly, we mixed control, or bait-saturated resins at various proportions by keeping the total resin amount and resin-analyte ratio constant during the experiment (for 25 μl we used 100 μl cell extract as analyte). In titration experiments with protein baits, bait concentration was determined as described above for the saturated resin stocks. Experiments were carried out at 4 °C for 2 h and recovered supernatants were subjected to western blot or dot blot analysis.
For Western blot, samples were mixed with 4x Laemmli Sample Buffer in 3:1 ratio. Equal amounts of samples were loaded on 6-10% acrylamide-gels (generally 16 μg). Transfer was done into PVDF membranes using a Trans-Blot Turbo Transfer System and Trans-Blot Turbo RTA Transfer Kit (BioRad, #1704275). For Dot blot, nHU samples were directly loaded on Nitrocellulose membranes using 48 Sample vacuum manifold (Cleaver Scientific) following the manufacturer’s recommendations. […]

CD2AP = CD2AP (Homo sapiens, UniProt Q9Y5K6); assay: nHU-MS peptide bait, prey CD2AP
HP1BP3 = HP1BP3 (Homo sapiens, UniProt Q5SSJ5); assay: nHU-MS peptide bait, prey HP1BP3
HA-POLE2 = biological target: T3, HA-POLE2 (Homo sapiens, UniProt P56282); assay: Titration nHU, Western blot, HA-POLE2 in 293T cell extract; format: binding; details: HA-tagged POLE2, range over assays, authors' rebuttal; read-out: dissociation constant
T3 construct: POLE2: UniProt ID P56282, residues 1-527; expressed in transfected cells; host or cells: HEK293T
Excerpt: as §1

GTPBP4 = GTPBP4 (Homo sapiens, UniProt Q9BZE4); assay: nHU-MS peptide bait, prey GTPBP4

Chain of RFT1 (Q96AA3 whole entry): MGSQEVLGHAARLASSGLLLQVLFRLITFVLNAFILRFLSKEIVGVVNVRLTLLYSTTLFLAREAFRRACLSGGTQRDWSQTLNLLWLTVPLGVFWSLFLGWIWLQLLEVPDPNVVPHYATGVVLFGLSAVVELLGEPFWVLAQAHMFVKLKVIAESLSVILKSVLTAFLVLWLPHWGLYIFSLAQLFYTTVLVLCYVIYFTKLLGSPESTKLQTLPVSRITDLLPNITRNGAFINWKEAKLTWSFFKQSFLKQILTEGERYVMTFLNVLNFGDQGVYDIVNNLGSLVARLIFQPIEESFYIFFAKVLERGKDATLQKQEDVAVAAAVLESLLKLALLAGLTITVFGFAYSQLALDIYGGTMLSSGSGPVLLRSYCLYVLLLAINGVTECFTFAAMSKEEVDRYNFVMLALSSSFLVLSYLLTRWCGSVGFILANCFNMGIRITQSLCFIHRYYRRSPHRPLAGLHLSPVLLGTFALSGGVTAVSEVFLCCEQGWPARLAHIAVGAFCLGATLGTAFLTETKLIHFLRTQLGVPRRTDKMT
Chain of HP1BP3 (Q5SSJ5 whole entry): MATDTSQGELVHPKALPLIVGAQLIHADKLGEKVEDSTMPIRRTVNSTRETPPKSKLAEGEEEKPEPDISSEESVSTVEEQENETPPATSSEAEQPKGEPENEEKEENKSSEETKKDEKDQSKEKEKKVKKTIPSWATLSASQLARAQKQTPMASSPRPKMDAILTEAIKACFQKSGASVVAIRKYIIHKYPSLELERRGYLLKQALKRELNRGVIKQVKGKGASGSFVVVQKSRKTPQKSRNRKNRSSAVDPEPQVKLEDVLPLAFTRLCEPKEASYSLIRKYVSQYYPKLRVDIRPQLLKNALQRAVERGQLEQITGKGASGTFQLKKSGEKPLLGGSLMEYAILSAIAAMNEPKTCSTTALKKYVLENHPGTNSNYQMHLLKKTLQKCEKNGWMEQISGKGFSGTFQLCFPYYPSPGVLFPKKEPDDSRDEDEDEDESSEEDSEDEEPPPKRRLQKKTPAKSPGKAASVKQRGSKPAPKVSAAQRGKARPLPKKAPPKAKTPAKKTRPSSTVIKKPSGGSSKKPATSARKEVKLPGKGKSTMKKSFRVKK
Chain of CD2AP (Q9Y5K6 whole entry): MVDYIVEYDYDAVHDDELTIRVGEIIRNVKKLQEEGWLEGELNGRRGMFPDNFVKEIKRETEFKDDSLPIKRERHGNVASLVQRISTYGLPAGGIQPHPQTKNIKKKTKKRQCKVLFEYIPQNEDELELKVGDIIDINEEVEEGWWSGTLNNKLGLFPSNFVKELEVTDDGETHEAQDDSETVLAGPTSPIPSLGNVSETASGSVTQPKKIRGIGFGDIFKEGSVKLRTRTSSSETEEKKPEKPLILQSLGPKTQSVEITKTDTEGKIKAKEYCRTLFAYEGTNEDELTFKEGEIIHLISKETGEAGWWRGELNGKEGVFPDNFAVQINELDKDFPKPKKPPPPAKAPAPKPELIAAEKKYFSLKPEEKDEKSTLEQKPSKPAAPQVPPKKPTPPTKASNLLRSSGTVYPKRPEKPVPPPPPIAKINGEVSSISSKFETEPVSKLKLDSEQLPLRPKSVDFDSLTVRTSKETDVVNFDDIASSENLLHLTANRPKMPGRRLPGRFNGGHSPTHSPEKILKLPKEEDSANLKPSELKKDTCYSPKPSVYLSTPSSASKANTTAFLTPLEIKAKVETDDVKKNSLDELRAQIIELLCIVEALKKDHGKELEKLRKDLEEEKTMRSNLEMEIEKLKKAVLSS
Chain of DDX18 (Q9NVP1 whole entry): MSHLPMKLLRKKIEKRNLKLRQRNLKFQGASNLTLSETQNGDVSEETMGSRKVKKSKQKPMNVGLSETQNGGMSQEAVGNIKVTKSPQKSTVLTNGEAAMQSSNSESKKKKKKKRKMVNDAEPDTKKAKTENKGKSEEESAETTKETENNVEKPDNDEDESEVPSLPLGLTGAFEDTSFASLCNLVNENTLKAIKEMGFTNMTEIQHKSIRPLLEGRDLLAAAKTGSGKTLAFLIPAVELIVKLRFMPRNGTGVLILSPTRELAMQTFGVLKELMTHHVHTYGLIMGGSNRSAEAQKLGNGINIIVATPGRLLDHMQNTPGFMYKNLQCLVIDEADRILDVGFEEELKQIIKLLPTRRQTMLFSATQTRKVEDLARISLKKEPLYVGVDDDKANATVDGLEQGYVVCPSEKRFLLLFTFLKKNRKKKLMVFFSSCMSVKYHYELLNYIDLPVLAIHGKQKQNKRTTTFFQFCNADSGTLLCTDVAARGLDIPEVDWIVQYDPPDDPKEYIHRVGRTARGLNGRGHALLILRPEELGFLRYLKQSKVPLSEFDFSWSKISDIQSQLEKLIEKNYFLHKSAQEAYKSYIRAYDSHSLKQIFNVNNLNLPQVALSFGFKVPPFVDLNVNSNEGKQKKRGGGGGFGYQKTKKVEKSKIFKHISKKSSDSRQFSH
T3 sequence (P56282 whole entry, the tested form may be a part): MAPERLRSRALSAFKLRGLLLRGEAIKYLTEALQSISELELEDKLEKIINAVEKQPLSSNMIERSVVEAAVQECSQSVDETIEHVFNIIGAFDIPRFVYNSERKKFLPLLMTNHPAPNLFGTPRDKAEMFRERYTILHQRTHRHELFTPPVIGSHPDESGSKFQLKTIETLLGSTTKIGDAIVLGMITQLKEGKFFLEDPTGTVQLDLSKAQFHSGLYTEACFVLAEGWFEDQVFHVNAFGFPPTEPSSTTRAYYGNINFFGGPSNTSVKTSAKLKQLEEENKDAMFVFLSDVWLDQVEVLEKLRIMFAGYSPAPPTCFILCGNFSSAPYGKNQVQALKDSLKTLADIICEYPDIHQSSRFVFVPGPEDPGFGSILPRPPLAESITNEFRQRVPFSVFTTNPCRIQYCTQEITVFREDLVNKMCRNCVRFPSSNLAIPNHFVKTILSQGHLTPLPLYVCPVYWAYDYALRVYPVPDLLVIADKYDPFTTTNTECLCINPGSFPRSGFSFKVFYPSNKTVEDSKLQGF
T1 sequence (P56282 whole entry, the tested form may be a part): as above

CC(C)C[C@H](NC(=O)[C@H](CCCNC(=N)N)NC(=O)[C@H](C)NC(=O)[C@H](Cc1ccccc1)NC(=O)[C@@H]1CCCN1C(=O)[C@H](CC(N)=O)NC(=O)[C@H](CCCNC(=N)N)NC(=O)[C@H](CCCNC(=N)N)NC(=O)[C@H](C)NC(=O)[C@H](C)NC(=O)[C@H](C)NC(=O)[C@@H]1CCCN1C(=O)CN)C(=O)N[C@@H](CC(=O)O)C(=O)N[C@@H](CC(N)=O)C(=O)N[C@@H](CCCNC(=N)N)C(=O)N1CCC[C@H]1C(=O)N[C@@H](CCCNC(=N)N)C(N)=O [DONSON_71-88] (H-GPAAARRNPFARLDNRPR-NH2)
pKd (HA-MBP-POLE2): 5.00 to 6.00
pKd (RFT1): 4.62
BI (RFT1; prey RFT1, MS7_Varjosalo): 0.292
pKd (DDX18): 4.53
BI (DDX18; prey DDX18, MS2_Varjosalo): 0.2529
pKd (EPS15): < 4.22
pKd (CD2AP): 4.73
BI (CD2AP; prey CD2AP, MS7_Varjosalo): 0.3476
pKd (HP1BP3): 4.51
BI (HP1BP3; prey HP1BP3, MS2_Varjosalo): 0.2425
pKd (HA-POLE2): 6.30 to 6.52
pKd (GTPBP4): 4.53
BI (GTPBP4; prey GTPBP4, MS2_Varjosalo): 0.252

Reference: article PMC12808100, “The non-catalytic DNA polymerase ε subunit is an NPF motif recognition protein” (Nature Communications, 2025)
